In general, IC50 refers to the concentration that inhibits the measured activity by half. A high value points to a need for much substance.

Among the data in patent publication US20210395313A1, “PEPTIDE PAC1 ANTAGONISTS” (AMGEN INC., priority 2017, published 2021) are IC50 values, retold here.

Where a SMILES comes first, the peptide text is derived from it. Bridges are numbered along the chain shown (N, C = ends).

Experiment [1] concerns the target T1, human PAC1 receptor (Homo sapiens, UniProt P41586).
T1 construct: SHSY-5Y (human neuroblastoma cell line) and RG-2 (rat glioma cell line) cells endogenously express human and rat PAC1 receptors, respectively; endogenous in cells; host or cells: SHSY-5Y human neuroblastoma cells
T1 sequence (P41586 21-468): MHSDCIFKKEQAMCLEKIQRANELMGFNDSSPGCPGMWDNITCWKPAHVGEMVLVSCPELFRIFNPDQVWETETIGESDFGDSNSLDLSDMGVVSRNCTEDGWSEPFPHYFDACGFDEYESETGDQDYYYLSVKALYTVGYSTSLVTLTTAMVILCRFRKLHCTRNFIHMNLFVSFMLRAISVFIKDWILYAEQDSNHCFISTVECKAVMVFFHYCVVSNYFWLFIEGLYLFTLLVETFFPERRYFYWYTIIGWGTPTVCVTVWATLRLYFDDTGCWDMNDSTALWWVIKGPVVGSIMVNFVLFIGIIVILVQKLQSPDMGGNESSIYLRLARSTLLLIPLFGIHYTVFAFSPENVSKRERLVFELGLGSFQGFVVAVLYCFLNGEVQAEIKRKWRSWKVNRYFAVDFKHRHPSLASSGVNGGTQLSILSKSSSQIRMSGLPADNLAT
Description: LANCE Ultra cAMP accumulation antagonist assay in SHSY-5Y cells.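 Note: inhibition of cAMP accumulation evoked by PAC1 agonist at its EC80 in SHSY-5Y cells endogenously expressing receptor, 30 min preincubation then 15 min agonist, TR-FRET readout.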 Type of experiment: cell-based. In general terms: In TR-FRET formats the signal depends on donor and acceptor labels being close together.

For experiment [2], the target named is T2, rat PAC1 receptor (Rattus norvegicus, UniProt P32215).
T2 construct: SHSY-5Y (human neuroblastoma cell line) and RG-2 (rat glioma cell line) cells endogenously express human and rat PAC1 receptors, respectively; endogenous in cells; host or cells: RG-2 rat glioma cells
T2 sequence (P32215 20-523): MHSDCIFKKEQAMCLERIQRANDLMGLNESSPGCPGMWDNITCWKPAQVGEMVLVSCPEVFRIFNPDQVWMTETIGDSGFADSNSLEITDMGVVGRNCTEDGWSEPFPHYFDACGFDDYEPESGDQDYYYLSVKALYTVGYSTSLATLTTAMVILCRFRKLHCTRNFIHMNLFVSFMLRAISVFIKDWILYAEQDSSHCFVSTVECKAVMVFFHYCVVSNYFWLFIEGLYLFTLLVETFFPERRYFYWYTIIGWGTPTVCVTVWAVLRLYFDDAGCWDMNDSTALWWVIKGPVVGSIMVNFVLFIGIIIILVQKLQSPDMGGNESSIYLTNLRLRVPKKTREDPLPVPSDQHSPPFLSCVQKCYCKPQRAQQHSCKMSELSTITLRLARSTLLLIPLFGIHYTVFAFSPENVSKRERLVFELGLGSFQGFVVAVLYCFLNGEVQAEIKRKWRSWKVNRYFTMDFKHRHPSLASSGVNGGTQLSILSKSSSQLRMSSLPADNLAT
As to the kind of experiment: LANCE Ultra cAMP accumulation antagonist assay in RG-2 cells.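 Note: RG-2 rat glioma cells endogenously expressing PAC1, test peptide preincubated 30 min, then PAC1 agonist added at its EC80 for 15 min, cAMP accumulation read by LANCE Ultra.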 The class given is cell-based.

Take `CC[C@H](C)[C@H](NC(=O)[C@H](C)NC(=O)[C@H](CCCCN)NC(=O)[C@H](CCCNC(=N)N)NC(=O)[C@H](Cc1ccccc1)NC(=O)[C@H](CCC(N)=O)NC(=O)[C@@H]1CSSC[C@H](N)C(=O)N[C@@H](CC(=O)O)C(=O)N[C@@H](C)C(=O)N[C@@H]([C@@H](C)O)C(=O)N1)C(=O)N[C@@H](CC(=O)O)C(=O)N[C@@H](CC(=O)O)C(=O)N[C@H]1CSSC[C@@H](C(=O)N[C@@H](CCSC)C(=O)N[C@@H](CCCCN)C(=O)N[C@@H](CCC(N)=O)C(=O)N[C@@H](CCCCN)C(=O)N[C@@H](CCCCN)C(=O)N[C@@H](CCCCN)C(=O)N[C@@H](CCC(=O)O)C(=O)N[C@@H](Cc2c[nH]c3ccccc23)C(=O)N[C@@H](CCCCN)C(=O)N[C@@H](C)C(=O)NCC(N)=O)NC(=O)[C@H](C)NC(=O)[C@H](CCCCN)NC(=O)[C@H](Cc2ccccc2)NC(=O)[C@H](C(C)C)NC(=O)[C@H](CO)NC(=O)[C@H](CO)NC(=O)[C@H](Cc2c[nH]cn2)NC(=O)[C@H](Cc2ccc(O)cc2)NC(=O)[C@H](C)NC(=O)[C@H](CCC(N)=O)NC(=O)[C@H](CCCNC(=N)N)NC(=O)[C@H](CC(=O)O)NC1=O` [compound 21] (H-CDATCQFRKAIDDCDRQAYHSSVFKACMKQKKKEWKAG-NH2; disulfide 1-5, 14-27): the IC50 in experiment [1] and in experiment [2] was 0.01 to 1 nM in each case.
`CC[C@H](C)[C@H](NC(=O)[C@H](C)NC(=O)[C@H](CCCCN)NC(=O)[C@H](CCCNC(=N)N)NC(=O)[C@H](Cc1ccccc1)NC(=O)[C@H](CCC(N)=O)NC(=O)[C@@H]1CSSC[C@H](N)C(=O)N[C@@H](CC(=O)O)C(=O)N[C@@H](C)C(=O)N[C@@H]([C@@H](C)O)C(=O)N1)C(=O)N[C@@H](CC(=O)O)C(=O)N[C@@H](CC(=O)O)C(=O)N[C@H]1CSSC[C@@H](C(=O)N[C@@H](CCSC)C(=O)N[C@@H](CCCCN)C(=O)N[C@@H](CCC(N)=O)C(=O)N[C@@H](CCCCN)C(=O)N[C@@H](CCCCN)C(=O)N[C@@H](CCCCN)C(=O)N[C@@H](CCC(=O)O)C(=O)N[C@@H](Cc2c[nH]c3ccccc23)C(=O)N[C@@H](CCCCN)C(=O)N[C@@H](C)C(=O)NCC(=O)N[C@@H](Cc2c[nH]cn2)C(=O)O)NC(=O)[C@H](C)NC(=O)[C@H](CCCCN)NC(=O)[C@H](Cc2ccccc2)NC(=O)[C@H](C(C)C)NC(=O)[C@H](CO)NC(=O)[C@H](CO)NC(=O)[C@H](Cc2c[nH]cn2)NC(=O)[C@H](Cc2c[nH]cn2)NC(=O)[C@H](C)NC(=O)[C@H](CCC(N)=O)NC(=O)[C@H](CCCCN)NC(=O)[C@H](C)NC1=O` [compound 26] (H-CDATCQFRKAIDDCAKQAHHSSVFKACMKQKKKEWKAGH-OH; disulfide 1-5, 14-27): the IC50 in experiment [1] and in experiment [2] was 0.01 to 1 nM each time.
For the compound `CC[C@H](C)[C@H](NC(=O)[C@H](C)NC(=O)[C@H](CCCCN)NC(=O)[C@H](CCCNC(=N)N)NC(=O)[C@H](Cc1ccccc1)NC(=O)[C@H](CCC(N)=O)NC(=O)[C@@H]1CSSC[C@H](N)C(=O)N[C@@H](CC(=O)O)C(=O)N[C@@H](C)C(=O)N[C@@H]([C@@H](C)O)C(=O)N1)C(=O)N[C@@H](CC(=O)O)C(=O)N[C@@H](CC(=O)O)C(=O)N[C@H]1CSSC[C@@H](C(=O)N[C@@H](CCSC)C(=O)N[C@@H](CCCCN)C(=O)N[C@@H](CCC(N)=O)C(=O)N[C@@H](CCCCN)C(=O)N[C@@H](CCCCN)C(=O)N[C@@H](CCCCN)C(=O)N[C@@H](CCC(=O)O)C(=O)N[C@@H](Cc2c[nH]c3ccccc23)C(=O)N[C@@H](CCCCN)C(=O)N[C@@H](C)C(=O)NCC(=O)N[C@@H](Cc2c[nH]cn2)C(=O)O)NC(=O)[C@H](C)NC(=O)[C@H](CCCCN)NC(=O)[C@H](Cc2ccccc2)NC(=O)[C@H](C(C)C)NC(=O)[C@H](CO)NC(=O)[C@H](CO)NC(=O)[C@H](Cc2c[nH]cn2)NC(=O)[C@H](Cc2ccc(O)cc2)NC(=O)[C@H](C)NC(=O)[C@H](CCC(N)=O)NC(=O)[C@H](CCCNC(=N)N)NC(=O)[C@H](C)NC1=O` [compound 27] (H-CDATCQFRKAIDDCARQAYHSSVFKACMKQKKKEWKAGH-OH; disulfide 1-5, 14-27), the IC50 in experiment [1] and in experiment [2] was 0.01 to 1 nM throughout.
With `CC[C@H](C)[C@H](NC(=O)[C@H](C)NC(=O)[C@H](CCCCN)NC(=O)[C@H](CCCNC(=N)N)NC(=O)[C@H](Cc1ccccc1)NC(=O)[C@H](CCC(N)=O)NC(=O)[C@@H]1CSSC[C@H](N)C(=O)N[C@@H](CC(=O)O)C(=O)N[C@@H](C)C(=O)N[C@@H]([C@@H](C)O)C(=O)N1)C(=O)N[C@@H](CC(=O)O)C(=O)N[C@@H](CC(=O)O)C(=O)N[C@H]1CSSC[C@@H](C(=O)N[C@@H](CCSC)C(=O)N[C@@H](CCCCN)C(=O)N[C@@H](CCC(N)=O)C(=O)N[C@@H](CCCCN)C(=O)N[C@@H](CCCCN)C(=O)N[C@@H](CCCCN)C(=O)N[C@@H](CCC(=O)O)C(=O)N[C@@H](Cc2c[nH]c3ccccc23)C(=O)N[C@@H](CCCCN)C(=O)N[C@@H](C)C(=O)NCC(=O)N[C@@H](Cc2c[nH]cn2)C(=O)O)NC(=O)[C@H](C)NC(=O)[C@H](CCCCN)NC(=O)[C@H](Cc2ccccc2)NC(=O)[C@H](C(C)C)NC(=O)[C@H](CO)NC(=O)[C@H](CO)NC(=O)[C@H](Cc2c[nH]cn2)NC(=O)[C@H](Cc2c[nH]cn2)NC(=O)[C@H](C)NC(=O)[C@H](CCC(N)=O)NC(=O)[C@H](CCCNC(=N)N)NC(=O)[C@H](C)NC1=O` [compound 28] (H-CDATCQFRKAIDDCARQAHHSSVFKACMKQKKKEWKAGH-OH; disulfide 1-5, 14-27), the half-inhibitory concentration (IC50) in experiment [1] and in experiment [2] was 0.01 to 1 nM each time.
As for `CC[C@H](C)[C@H](NC(=O)[C@H](C)NC(=O)[C@H](CCCCN)NC(=O)[C@H](CCCNC(=N)N)NC(=O)[C@H](Cc1ccccc1)NC(=O)[C@H](CCC(N)=O)NC(=O)[C@@H]1CSSC[C@H](N)C(=O)N[C@@H](CC(=O)O)C(=O)N[C@@H](C)C(=O)N[C@@H]([C@@H](C)O)C(=O)N1)C(=O)N[C@@H](CC(=O)O)C(=O)N[C@@H](CC(=O)O)C(=O)N[C@H]1CSSC[C@@H](C(=O)N[C@@H](CCSC)C(=O)N[C@@H](CCCCN)C(=O)N[C@@H](CCC(N)=O)C(=O)N[C@@H](CCCCN)C(=O)N[C@@H](CCCCN)C(=O)N[C@@H](CCCCN)C(=O)N[C@@H](CCC(=O)O)C(=O)N[C@@H](Cc2ccccc2)C(=O)N[C@@H](CCCCN)C(=O)N[C@@H](C)C(=O)NCC(=O)N[C@@H](Cc2ccc(O)cc2)C(=O)O)NC(=O)[C@H](C)NC(=O)[C@H](CCCCN)NC(=O)[C@H](Cc2ccccc2)NC(=O)[C@H](C(C)C)NC(=O)[C@H](CO)NC(=O)[C@H](CO)NC(=O)[C@H](Cc2c[nH]cn2)NC(=O)[C@H](Cc2c[nH]cn2)NC(=O)[C@H](C)NC(=O)[C@H](CCC(N)=O)NC(=O)[C@H](CCCCN)NC(=O)[C@H](C)NC1=O` [compound 29] (H-CDATCQFRKAIDDCAKQAHHSSVFKACMKQKKKEFKAGY-OH; disulfide 1-5, 14-27), the IC50 in experiment [1] and in experiment [2] was 0.01 to 1 nM in each case.
With `CC[C@H](C)[C@H](NC(=O)[C@H](C)NC(=O)[C@H](CCCCN)NC(=O)[C@H](CCCNC(=N)N)NC(=O)[C@H](Cc1ccccc1)NC(=O)[C@H](CCC(N)=O)NC(=O)[C@@H]1CSSC[C@H](N)C(=O)N[C@@H](CC(=O)O)C(=O)N[C@@H](C)C(=O)N[C@@H]([C@@H](C)O)C(=O)N1)C(=O)N[C@@H](CC(=O)O)C(=O)N[C@@H](CC(=O)O)C(=O)N[C@H]1CSSC[C@@H](C(=O)N[C@@H](CCSC)C(=O)N[C@@H](CCCCN)C(=O)N[C@@H](CCC(N)=O)C(=O)N[C@@H](CCCCN)C(=O)N[C@@H](CCCCN)C(=O)N[C@@H](CCCCN)C(=O)N[C@@H](CCC(=O)O)C(=O)N[C@@H](Cc2ccccc2)C(=O)N[C@@H](CCCCN)C(=O)N[C@@H](C)C(=O)NCC(=O)N[C@@H](Cc2ccc(O)cc2)C(=O)O)NC(=O)[C@H](C)NC(=O)[C@H](CCCCN)NC(=O)[C@H](Cc2ccccc2)NC(=O)[C@H](C(C)C)NC(=O)[C@H](CO)NC(=O)[C@H](CO)NC(=O)[C@H](Cc2c[nH]cn2)NC(=O)[C@H](Cc2ccc(O)cc2)NC(=O)[C@H](C)NC(=O)[C@H](CCC(N)=O)NC(=O)[C@H](CCCCN)NC(=O)[C@H](C)NC1=O` [compound 30] (H-CDATCQFRKAIDDCAKQAYHSSVFKACMKQKKKEFKAGY-OH; disulfide 1-5, 14-27), the IC50 in experiment [1] and in experiment [2] was 0.01 to 1 nM each time.
